Test results published in ChEMBL document CHEMBL5036360, “Pinguisane Sesquiterpenoids from the Chinese Liverwort Trocholejeunea sandvicensis and Their Anti-Inflammatory Activity” (J Nat Prod, 2022).
Active and inactive are the calls of the source. The rule behind the calls is not given here.

These molecules were tested on RAW264.7 (assay: Antiinflammatory activity in mouse RAW264.7 cells assessed as inhibition of LPS-induced NO production at 100 uM measured after 24 hrs by Griess method). Settings: not given.
Format: functional

Compound | Activity
CCOC(=O)C1=C(C)[C@]2(C)CC[C@@H](C)[C@]2(C)CC1=O | inactive
C=C1[C@]2(C)CC[C@@H](C)[C@]2(C)C[C@@]2(O)O[C@@H](OCC)[C@H](O)[C@@]12OCC | inactive
C[C@@H]1CC[C@@]2(C)[C@H](C)C3=CC(=O)O[C@]3(O)C[C@@]12C | 96.28%
CO[C@@]12C[C@@]3(C)[C@H](C)CC[C@@]3(C)[C@H](C)C1=CC(=O)O2 | inactive
CCOC(=O)/C=C1\C(=O)C[C@@]2(C)[C@H](C)CC[C@@]2(C)[C@@H]1C | inactive
C[C@@H]1CC[C@@]2(C)[C@H](C)[C@]3(C[C@@]12C)C(=O)O[C@H]1O[C@H]13 | inactive
C[C@@H]1CC[C@@]2(C)[C@H](C)C3=CC(=O)NC3=C[C@@]12C | inactive
CCO[C@@]12C[C@@]3(C)[C@H](C)CC[C@@]3(C)[C@H](C)C1=CC(=O)O2 | 83.54%
C[C@@H]1CC[C@@]2(C)[C@H](C)C3=CC(=O)N[C@@H]3C[C@@]12C | inactive
CC1=C(CC(=O)O)C(=O)C[C@@]2(C)[C@H](C)CC[C@@]12C | inactive
C=C1[C@@]2(CC=O)O[C@H](OC2=O)[C@@]2(C)[C@H](C)CC[C@@]12C | 83.15%

These molecules were tested on RAW264.7 (assay: Cytotoxicity against mouse RAW264.7 cells […] measured after 24 hrs by MTT assay). Settings: RAW264.7, 24 h.
Format: cell-based

Compound | IC50
CCOC(=O)C1=C(C)[C@]2(C)CC[C@@H](C)[C@]2(C)CC1=O | > 100 µM
C=C1[C@]2(C)CC[C@@H](C)[C@]2(C)C[C@@]2(O)O[C@@H](OCC)[C@H](O)[C@@]12OCC | > 100 µM
C[C@@H]1CC[C@@]2(C)[C@H](C)C3=CC(=O)O[C@]3(O)C[C@@]12C | > 100 µM
CO[C@@]12C[C@@]3(C)[C@H](C)CC[C@@]3(C)[C@H](C)C1=CC(=O)O2 | > 100 µM
CCOC(=O)/C=C1\C(=O)C[C@@]2(C)[C@H](C)CC[C@@]2(C)[C@@H]1C | > 100 µM
C[C@@H]1CC[C@@]2(C)[C@H](C)[C@]3(C[C@@]12C)C(=O)O[C@H]1O[C@H]13 | > 100 µM
C[C@@H]1CC[C@@]2(C)[C@H](C)C3=CC(=O)NC3=C[C@@]12C | > 100 µM
CCO[C@@]12C[C@@]3(C)[C@H](C)CC[C@@]3(C)[C@H](C)C1=CC(=O)O2 | > 100 µM
C[C@@H]1CC[C@@]2(C)[C@H](C)C3=CC(=O)N[C@@H]3C[C@@]12C | > 100 µM
CC1=C(CC(=O)O)C(=O)C[C@@]2(C)[C@H](C)CC[C@@]12C | > 100 µM
C=C1[C@@]2(CC=O)O[C@H](OC2=O)[C@@]2(C)[C@H](C)CC[C@@]12C | > 100 µM

Species on record: Danio rerio
Test: Antiinflammatory activity in transgenic fluorescent Zebrafish assessed as reduction in CuSO4 induced number of macrophage migration at 10 to 50 uM measured after 1 hr by fluorescence microscopic analysis
Format: functional, organism-based
Settings: dose 10-50 µM

Compound | Activity
C[C@@H]1CC[C@@]2(C)[C@H](C)C3=CC(=O)O[C@]3(O)C[C@@]12C | inactive
CCO[C@@]12C[C@@]3(C)[C@H](C)CC[C@@]3(C)[C@H](C)C1=CC(=O)O2 | Active
C=C1[C@@]2(CC=O)O[C@H](OC2=O)[C@@]2(C)[C@H](C)CC[C@@]12C | inactive
